From patent publication US8207157B2, “Methods and compositions for repelling arthropods” (The United States of America, as represented by the …, priority 2006, dated 2012) come the findings set out here.

In one test the test system is female Ae. aegypti. Briefly: Competitive (two-port) olfactometer bioassay of attractants and inhibitors. It counts as in vivo, Aedes aegypti. The source says:
Mosquitoes choose to fly upwind into a port with the treatment or choose to remain in the cage. It is clear that in competition, these mosquitoes preferred the natural human odors over the blend by about a 5:1 margin.

In test [1] the test system is female Aedes aegypti mosquitoes. The test is described as follows: Non-competitive olfactometer bioassay of absolute attraction to attractants with or without candidate inhibitors. It counts as in vivo. The conditions noted are these: for Attraction with 50 μL 1-MPZ mean ± SE (%): 3 min; for Attraction Mean ± SE (%): 50 μL heterocycle combined with 500 μL 3-compound attractant blend, line Blend = attractant alone.

For test [2], the system named is Anopheles albimanus mosquitoes. Briefly: Competitive (two-port) olfactometer bioassay of attractants and inhibitors. The test is classed as in vivo. The conditions noted are these: competing port: B + (1-MPZ) + (4-MM).

As to `CCCCCCCCN1CCN(C)CC1` [1M-4-OPZ, 1-methyl-4-octylpiperazine], the “Attraction mean ± SE (%), Treatment 2” value in the test on female Ae. aegypti (port: B + (1-M-4-OPZ), competing port: B + (1-MPZ)) amounted to 24.5 ± 4.4%.
For `CN1CCNCC1` [1-MPZ, 1-methylpiperazine], the “Attraction with 50 μL 1-MPZ mean ± SE (%)” value is reported as 12.8 ± 1.8% in test [1] (attractant: 1 mL 3-compound blend) and 23.5 ± 3.0% in test [1] (attractant: human arm/hand odor). In addition, the “Total Catch (%)” value in the test with female Ae. aegypti (both ports: Human + 1-MPZ (50 μL) vs Blend, 97.2% without 1-MPZ) is given as 78.1%. In addition, the “Attraction mean ± SE (%), Treatment 1” value in the test with female Ae. aegypti (port: B + (1-MPZ), competing port: B + (1-M-4-OPZ)) amounted to 4.6 ± 1.5%; in the test on female Ae. aegypti (port: B + (1-MPZ), competing port: B + (4-MM)) it was 5.4 ± 1.3%. Further, the “Attraction mean ± SE (%), Treatment 2” value with female Ae. aegypti (port: B + (1-MPZ), competing port: B + (1-MPZ) + (4-MM)) was 5.1 ± 1.1%; in test [2] (port: B + (1-MPZ)) it was 9.7 ± 3.3%. Also, the “Attraction mean ± SE (%), Treatment with Inhibitor” value in the test on female Ae. aegypti (port: Blend + inhibitor (50 μL each), competing port: Blend) was determined as 3.4 ± 1.0%; in the test with female Ae. aegypti (port: Blend + inhibitor (50 μL each), competing port: RH odors), 0.9 ± 0.3%; with female Ae. aegypti (port: RH odors + inhibitor (50 μL each), competing port: Blend), 14.1 ± 2.7%; in the test with female Ae. aegypti (port: RH odors + inhibitor (50 μL each), competing port: LH odors), 7.7 ± 1.2%. In the test with female Ae. aegypti (port: human odor + 50 μL 1-MPZ, competing port: Blend), the “Attraction ± SE (%), Treatment 1 port” value is recorded as 29.5 ± 3.2%.
In the case of `CN1CCOCC1` [4-MM, 4-methylmorpholine], the “Attraction mean ± SE (%), Treatment 2” value is 8.0 ± 1.1% in the test on female Ae. aegypti (port: B + (4-MM), competing port: B + (1-MPZ)); 5.1 ± 1.8% in the test with female Ae. aegypti (port: B + (4-MM), competing port: B + (1-MPZ) + (4-MM)); 5.2 ± 2.0% in test [2] (port: B + (4-MM)).
Turning to `C1CNCCN1` [piperazine], the “Attraction Mean ± SE (%)” value in test [1] turned out to be 41.4%.
With `OCCN1CCN(CCO)CC1` [1,4-bis(2-hydroxyethyl)piperazine], the “Attraction Mean ± SE (%)” value in test [1] (listed as 1,4-bis (2-hydroxyethyl)piperazine-2,2′-1,4-diyldiethanol) worked out at 73%.
